Reference: paper PMC11944477, “Isolation of Allosteric Tryptase Inhibitor from Methanol Extract of Rhubarb and Enhancement of Its Tryptase Inhibitory Activity by Compounds That Were Screened by In Silico Screening” (Molecules, 2025)

Key:
asthma patients = tested on: asthma patients; design: method as in PMID 31371445, PMID 10197050; details: clinical trial for asthma, abandoned; cited from earlier work
[1] = target: T1, Tryptase from a human lung (Homo sapiens, UniProt P20231); assay: Measurement of inhibitory activity against tryptase (chromogenic substrate, absorbance at 415 nm); assay type: biochemical; details: for IC50: inhibitor alone, 30 min preincubation, mean ± SE (n = 3)
T1 construct: Tryptase from a human lung was purchased from Sigma-Aldrich; purchased Sigma-Aldrich; host or cells: human lung tissue
Experimental: (§1) Tryptase from a human lung was purchased from Sigma-Aldrich (St. Louis, MO, USA). The activity of tryptase was measured in 100 mM Tris-HCl buffer, pH 8.0, 100 mM glycerol, 0.02 mg/mL heparin sodium salt and 167 µM N-(p-Tosyl)-Gly-Pro-Lys 4-nitroanilide acetate salt (Sigma-Aldrich) as a substrate. Prior to addition of the substrate, the inhibitor was preincubated with the enzyme for 30 min at room temperature to allow the establishment of the enzyme–inhibitor complex. The substrate was then added, and after incubation for 30 min at 37 °C, the enzyme activity was measured from the increase in absorbance at 415 nm. The assays were performed using a 384-well microplate (CELLSTAR 384-well 781182, Greiner Bio-One, Kremsmünster, Austria) and absorbance was measured using a Powerscan 4 plate reader (DS pharma biomedical, Osaka, Japan). The inhibition ratio was calculated using the following equation: inhibition ratio %=1−AE+S+I−AS−AI+Ablank/AE+S−AS×100
A(x): absorbance intensity (415 nm); E: enzyme; S: substrate; I: inhibitor; blank: buffer.
(§2) The inhibitory activity against tryptase and the trypsin of leupeptin and PB8GG’ were measured at 0.1–100 µM, along with that of ellagitannins (carpinin B or carpinin E) isolated by our group at 20–50 µM. The inhibitory activity of a combination of various concentrations of PB8GG’ and 50 µM ellagitannins was also assayed.
(§3) Drawing curves of the inhibition and calculation of IC50 were performed by GraphPad Prism (Version 9.5.1).

[2] = target: T2, Trypsin from a hog pancreas (Sus scrofa, UniProt P00761); assay: Measurement of inhibitory activity against trypsin (Bz-L-Arg-pNA substrate, absorbance at 415 nm); assay type: biochemical
T2 construct: Trypsin from a hog pancreas was purchased from Nacalai Tesque; purchased Nacalai Tesque; host or cells: hog pancreas
Experimental: Trypsin from a hog pancreas was purchased from Nacalai Tesque, Kyoto, Japan. The activity of trypsin was measured in 200 mM Tris-HCl buffer, pH 7.8, 20 mM CaCl2 and 385 µM Benzoyl-L-arginine p-nitroanilide monohydrochloride (Bz-L-Arg-pNA·HCl) (Peptide Institute, Osaka, Japan) as a substrate. Prior to addition of the substrate, the inhibitor was preincubated with the enzyme for 10 min at room temperature to allow the establishment of the enzyme–inhibitor complex. The substrate was then added, and after incubation for 60 min at 37 °C, the enzyme activity was measured from the increase in absorbance at 415 nm. The assays were performed using a 384-well microplate and absorbance was measured using a Powerscan 4 plate reader.
as §2, §3

[3] = tested on: Tryptase from a human lung; assay: Kinetic analysis of tryptase inhibition (Lineweaver-Burk plot, Morrison's formula); assay type: biochemical
Experimental: as §1
Ki^app was calculated using the Morrison’s formula with GraphPad Prism. The mean value of Km from the kinetic analysis (described in next Section 4.5) was substituted as a constant in the formula.
For kinetic studies of tryptase, inhibition assays were carried out as described in the preceding paragraph. […] The kinetic parameters were calculated by curve fitting using GraphPad Prism.

T1 sequence (P20231 31-275): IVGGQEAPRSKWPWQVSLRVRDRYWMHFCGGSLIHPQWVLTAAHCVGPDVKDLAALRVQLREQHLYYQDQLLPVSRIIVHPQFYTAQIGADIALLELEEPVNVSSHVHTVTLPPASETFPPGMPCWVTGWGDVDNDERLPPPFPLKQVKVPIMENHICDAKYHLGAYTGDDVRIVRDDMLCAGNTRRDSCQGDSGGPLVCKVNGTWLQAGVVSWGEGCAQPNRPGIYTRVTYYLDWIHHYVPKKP
T2 sequence (P00761 9-231): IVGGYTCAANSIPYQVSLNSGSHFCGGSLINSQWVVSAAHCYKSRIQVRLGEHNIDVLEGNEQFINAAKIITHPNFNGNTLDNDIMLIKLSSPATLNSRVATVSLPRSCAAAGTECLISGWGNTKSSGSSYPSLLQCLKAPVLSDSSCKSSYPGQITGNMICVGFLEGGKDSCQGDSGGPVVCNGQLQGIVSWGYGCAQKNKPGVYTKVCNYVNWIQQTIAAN

Compound | adverse effect in treated patients (asthma patients) | inhibition of tryptase activity ([1]; at 5 μM) | inhibition of tryptase activity ([1]; at the dose of 1–3 μM) | IC50 [1] [µM] | inhibitory activity against trypsin ([2]; tested at 0.1–100 µM) | mode of inhibition of tryptase ([3]; Lineweaver–Burk plot) | Ki ([3]; Morrison's formula, GraphPad Prism, read-out: inhibition constant Ki app) [µM] | IC50 ([2]; 10 min preincubation, mean ± SE (n = 3)) [µM]
NC(=O)[C@@H]1CCCN1C(=O)[C@H](CCCN=C(N)N)NC(=O)c1ccc2ccccc2c1O [APC-366] | caused bronchospasms |  |  |  |  |  |  | 
O=C(O[C@@H]1Cc2c(cc(O)c(C3c4c(O)cc(O)cc4O[C@H](c4ccc(O)c(O)c4)[C@H]3OC(=O)c3cc(O)c(O)c(O)c3)c2O)O[C@@H]1c1ccc(O)c(O)c1)c1cc(O)c(O)c(O)c1 (stereo partly drawn) [PB8GG’, procyanidin B8 3,3′-di-O-gallate] |  | clearly inhibited | very weakly inhibited | 7.78 ± 0.17 | little inhibitory activity | mixed-type non-competitive | 5.02 ± 0.99 | 
CC(=O)N[C@@H](CC(C)C)C(=O)N[C@@H](CC(C)C)C(=O)N[C@H](C=O)CCCNC(=N)N [leupeptin, reference compound] |  |  |  | 14.9 ± 1.25 |  |  |  | 8.4 ± 0.31
